Measurements published in PubChem BioAssay AID1259407 (Chemical Carcinogenesis Research Information System (CCRIS), 2018).
The source made the active and inactive calls. The rule behind the calls is not given here.

Tested on: CCRIS mutagenicity, Ames/micronucleus/aberration tests
Experiment: CCRIS mutagenicity studies
[1] = Test System: AMES SALMONELLA TYPHIMURIUM, Strain/Indicator: TA97, Metabolic Activation: HAMSTER, LIVER, S-9, AROCLOR 1254 (10%), Method: PREINCUBATION
[2] = Test System: AMES SALMONELLA TYPHIMURIUM, Strain/Indicator: TA97, Metabolic Activation: NONE, Method: PREINCUBATION
[3] = Test System: AMES SALMONELLA TYPHIMURIUM, Strain/Indicator: TA97, Metabolic Activation: RAT, LIVER, S-9, AROCLOR 1254 (10%), Method: PREINCUBATION
[4] = Test System: AMES SALMONELLA TYPHIMURIUM, Strain/Indicator: TA98, Metabolic Activation: HAMSTER, LIVER, S-9, AROCLOR 1254 (10%), Method: PREINCUBATION
[5] = Test System: AMES SALMONELLA TYPHIMURIUM, Strain/Indicator: TA98, Metabolic Activation: NONE, Method: PREINCUBATION
[6] = Test System: AMES SALMONELLA TYPHIMURIUM, Strain/Indicator: TA98, Metabolic Activation: RAT, LIVER, S-9, AROCLOR 1254 (10%), Method: PREINCUBATION
[7] = Test System: AMES SALMONELLA TYPHIMURIUM, Strain/Indicator: TA100, Metabolic Activation: HAMSTER, LIVER, S-9, AROCLOR 1254 (10%), Method: PREINCUBATION
[8] = Test System: AMES SALMONELLA TYPHIMURIUM, Strain/Indicator: TA100, Metabolic Activation: NONE, Method: PREINCUBATION
[9] = Test System: AMES SALMONELLA TYPHIMURIUM, Strain/Indicator: TA100, Metabolic Activation: RAT, LIVER, S-9, AROCLOR 1254 (10%), Method: PREINCUBATION
[10] = Test System: AMES SALMONELLA TYPHIMURIUM, Strain/Indicator: TA1535, Metabolic Activation: HAMSTER, LIVER, S-9, AROCLOR 1254 (10%), Method: PREINCUBATION
[11] = Test System: AMES SALMONELLA TYPHIMURIUM, Strain/Indicator: TA1535, Metabolic Activation: NONE, Method: PREINCUBATION
[12] = Test System: AMES SALMONELLA TYPHIMURIUM, Strain/Indicator: TA98, Metabolic Activation: NONE, Method: STANDARD PLATE
[13] = Test System: AMES SALMONELLA TYPHIMURIUM, Strain/Indicator: TA98, Metabolic Activation: RAT, LIVER, S-9, AROCLOR 1254, Method: STANDARD PLATE
[14] = Test System: AMES SALMONELLA TYPHIMURIUM, Strain/Indicator: TA1538, Metabolic Activation: NONE, Method: STANDARD PLATE
[15] = Test System: AMES SALMONELLA TYPHIMURIUM, Strain/Indicator: TA1538, Metabolic Activation: RAT, LIVER, S-9, AROCLOR 1254, Method: STANDARD PLATE

## Nc1ccccc1Cl
[1]
  mutagenic call: inactive; negative
Test System: AMES SALMONELLA TYPHIMURIUM, Strain/Indicator: TA97, Metabolic Activation: HAMSTER, LIVER, S-9, AROCLOR 1254 (30%), Method: PREINCUBATION
  mutagenic call: inactive; negative
[2]
  mutagenic call: inactive; negative
[3]
  mutagenic call: inactive; negative
Test System: AMES SALMONELLA TYPHIMURIUM, Strain/Indicator: TA97, Metabolic Activation: RAT, LIVER, S-9, AROCLOR 1254 (30%), Method: PREINCUBATION
  mutagenic call: inactive; negative
[4]
  mutagenic call: inactive; negative
Test System: AMES SALMONELLA TYPHIMURIUM, Strain/Indicator: TA98, Metabolic Activation: HAMSTER, LIVER, S-9, AROCLOR 1254 (30%), Method: PREINCUBATION
  mutagenic call: inactive; negative
[5]
  mutagenic call: inactive; negative
[6]
  mutagenic call: inactive; negative
Test System: AMES SALMONELLA TYPHIMURIUM, Strain/Indicator: TA98, Metabolic Activation: RAT, LIVER, S-9, AROCLOR 1254 (30%), Method: PREINCUBATION
  mutagenic call: inactive; negative
[7]
  mutagenic call: inactive; negative
Test System: AMES SALMONELLA TYPHIMURIUM, Strain/Indicator: TA100, Metabolic Activation: HAMSTER, LIVER, S-9, AROCLOR 1254 (30%), Method: PREINCUBATION
  mutagenic call: inactive; negative
[8]
  mutagenic call: inactive; negative
[9]
  mutagenic call: inactive; negative
Test System: AMES SALMONELLA TYPHIMURIUM, Strain/Indicator: TA100, Metabolic Activation: RAT, LIVER, S-9, AROCLOR 1254 (30%), Method: PREINCUBATION
  mutagenic call: inactive; negative
[10]
  mutagenic call: inactive; negative
Test System: AMES SALMONELLA TYPHIMURIUM, Strain/Indicator: TA1535, Metabolic Activation: HAMSTER, LIVER, S-9, AROCLOR 1254 (30%), Method: PREINCUBATION
  mutagenic call: inactive; negative
[11]
  mutagenic call: inactive; negative
Test System: AMES SALMONELLA TYPHIMURIUM, Strain/Indicator: TA1535, Metabolic Activation: RAT, LIVER, S-9, AROCLOR 1254 (10%), Method: PREINCUBATION
  mutagenic call: inactive; negative
Test System: AMES SALMONELLA TYPHIMURIUM, Strain/Indicator: TA1535, Metabolic Activation: RAT, LIVER, S-9, AROCLOR 1254 (30%), Method: PREINCUBATION
  mutagenic call: inactive; negative
Test System: CHINESE HAMSTER V-79, Strain/Indicator: V-79/8-AZAGUANINE, Metabolic Activation: NONE, Method: SUSPENSION/PLATE
  mutagenic call: active; positive
Test System: CHINESE HAMSTER V-79, Strain/Indicator: V-79/OUABAIN, Metabolic Activation: NONE, Method: SUSPENSION/PLATE
  mutagenic call: inactive; negative
Test System: MOUSE LYMPHOMA, Strain/Indicator: L5178Y (TK+/TK-), Metabolic Activation: NONE, Method: SUSPENSION/PLATE
  mutagenic call: inactive; negative
Test System: MOUSE LYMPHOMA, Strain/Indicator: L5178Y (TK+/TK-), Metabolic Activation: RAT, LIVER, S-9, AROCLOR 1254, Method: SUSPENSION/PLATE
  mutagenic call: active; positive
Test System: UDS RODENT HEPATOCYTES, Strain/Indicator: THY INCORP (NON-S-PHASE), Metabolic Activation: NONE, Method: AUTORADIOGRAPHY
  mutagenic call: inactive; negative

## CC(C)C[C@H](NC(=O)COc1cc(Cl)c(Cl)cc1Cl)C(=O)O
Test System: AMES SALMONELLA TYPHIMURIUM, Strain/Indicator: TA97, Metabolic Activation: NONE, Method: STANDARD PLATE
  mutagenic call: inactive; negative
Test System: AMES SALMONELLA TYPHIMURIUM, Strain/Indicator: TA97, Metabolic Activation: RAT, LIVER, S-9, AROCLOR 1254, Method: STANDARD PLATE
  mutagenic call: inactive; negative
[12]
  mutagenic call: inactive; negative
[13]
  mutagenic call: inactive; negative
Test System: AMES SALMONELLA TYPHIMURIUM, Strain/Indicator: TA100, Metabolic Activation: NONE, Method: STANDARD PLATE
  mutagenic call: inactive; negative
Test System: AMES SALMONELLA TYPHIMURIUM, Strain/Indicator: TA100, Metabolic Activation: RAT, LIVER, S-9, AROCLOR 1254, Method: STANDARD PLATE
  mutagenic call: inactive; negative
Test System: AMES SALMONELLA TYPHIMURIUM, Strain/Indicator: TA1535, Metabolic Activation: NONE, Method: STANDARD PLATE
  mutagenic call: inactive; negative
Test System: AMES SALMONELLA TYPHIMURIUM, Strain/Indicator: TA1535, Metabolic Activation: RAT, LIVER, S-9, AROCLOR 1254, Method: STANDARD PLATE
  mutagenic call: inactive; negative
[14]
  mutagenic call: inactive; negative
[15]
  mutagenic call: inactive; negative

## Cc1ccc(NO)cc1
Test System: AMES SALMONELLA TYPHIMURIUM, Strain/Indicator: TA98, Metabolic Activation: RAT, LIVER, S-9, AROCLOR 1254, Method: PREINCUBATION
  mutagenic call: inactive; negative
[8]
  mutagenic call: active; positive
Test System: AMES SALMONELLA TYPHIMURIUM, Strain/Indicator: TA100, Metabolic Activation: RAT, LIVER, S-9, PCB, Method: PREINCUBATION
  mutagenic call: active; positive
Test System: E. COLI, Strain/Indicator: WP2 UVRA, Metabolic Activation: NONE, Method: FLUCTUATION TEST
  mutagenic call: active; positive

## Cc1c(N)cccc1N
End Point: IN VITRO CHROMOSOMAL ABERRATIONS, Test System: CHINESE HAMSTER LUNG CELLS (CHL), Metabolic Activation: NONE
  mutagenic call: active; positive (structural changes)
End Point: IN VITRO CHROMOSOMAL ABERRATIONS, Test System: CHINESE HAMSTER LUNG CELLS (CHL), Metabolic Activation: RAT, LIVER, S-9, KC-400
  mutagenic call: active; positive (structural changes)
End Point: IN VITRO CHROMOSOMAL ABERRATIONS, Test System: CHINESE HAMSTER OVARY CELLS (CHO), Metabolic Activation: NONE
  mutagenic call: active; positive (structural changes)
End Point: IN VITRO CHROMOSOMAL ABERRATIONS, Test System: CHINESE HAMSTER OVARY CELLS (CHO), Metabolic Activation: RAT, LIVER, S-9, AROCLOR 1254
  mutagenic call: inactive; negative
End Point: IN VITRO CHROMOSOMAL ABERRATIONS, Test System: CHO CELLS, Metabolic Activation: RAT, LIVER, S-9, AROCLOR 1254
  mutagenic call: inactive; negative
[1]
  mutagenic call: active; positive
[2]
  mutagenic call: inactive; negative
[3]
  mutagenic call: inactive; negative
[4]
  mutagenic call: active; positive
[5]
  mutagenic call: inactive; negative
[6]
  mutagenic call: active; positive
[7]
  mutagenic call: active; positive
[8]
  mutagenic call: inactive; negative
[9]
  mutagenic call: active; positive
[10]
  mutagenic call: active; positive
[11]
  mutagenic call: inactive; negative
Test System: AMES SALMONELLA TYPHIMURIUM, Strain/Indicator: TA1535, Metabolic Activation: RAT, LIVER, S-9, AROCLOR 1254 (5, 10 OR 30%), Method: PREINCUBATION
  mutagenic call: inactive; negative

## C[n+]1c2cc(N)ccc2cc2ccc(N)cc21 (tested in a mixture with another compound)
[12]
  mutagenic call: inactive; negative
[13]
  mutagenic call: active; positive
Test System: AMES SALMONELLA TYPHIMURIUM, Strain/Indicator: TA1537, Metabolic Activation: NONE, Method: STANDARD PLATE
  mutagenic call: inactive; negative
Test System: AMES SALMONELLA TYPHIMURIUM, Strain/Indicator: TA1537, Metabolic Activation: RAT, LIVER, S-9, AROCLOR 1254, Method: STANDARD PLATE
  mutagenic call: active; positive
[14]
  mutagenic call: inactive; negative
[15]
  mutagenic call: active; positive
Test System: CHINESE HAMSTER OVARY, Strain/Indicator: CHO-K1-BH4 (HGPRT), Metabolic Activation: RAT, LIVER, S-9, AROCLOR, Method: SUSPENSION/PLATE
  mutagenic call: active; positive
